Measured values taken from article PMC8196580, “Identification of Kaurane-Type Diterpenes as Inhibitors of Leishmania Pteridine Reductase I” (Molecules, 2021).
Where two headings read alike, the source gives them in different places.

Legend:
L. major [1] = experiment: ChEMBL dataset of pIC50 values against L. major used for the RF model (Table S1); type: cell-based, Leishmania major; note: call rule not given here
L. major [2] = test system: L. major; set-up: method as in ChEMBL; details: ref ChEMBL, cited from earlier work
[3] = Active/Inactive class assigned to the ChEMBL pIC50 value for Random forest model construction, ref ChEMBL
[4] = ChemBL structures with pIC50 values used for Random forest model construction, L. major
[5] = Active/Inactive class assigned to ChemBL structures for Random forest model construction (Table S1)
[6] = ChemBL structures with pIC50 values used for Random forest model construction (Table S1)

| Compound | Outcome (L. major [1]; [3]) | pIC50 Value (L. major [2]; [4]) | Outcome (L. major [1]; [5]) | pIC50 Value (L. major [2]; [6]) |
| --- | --- | --- | --- | --- |
| CNC(=N)c1ccc(N2CCN(c3nnc(-c4ccc([N+](=O)[O-])o4)s3)CC2)cc1.Cl [CHEMBL1783201] | Inactive | 4.64 |  |  |
| CCNC(=N)c1ccc(N2CCN(c3nnc(-c4ccc([N+](=O)[O-])o4)s3)CC2)cc1.Cl [CHEMBL1783202] | Inactive | 4.48 |  |  |
| CCCNC(=N)c1ccc(N2CCN(c3nnc(-c4ccc([N+](=O)[O-])o4)s3)CC2)cc1.Cl [CHEMBL1783203] | Active | 5.00 |  |  |
| CCCCNC(=N)c1ccc(N2CCN(c3nnc(-c4ccc([N+](=O)[O-])o4)s3)CC2)cc1.Cl [CHEMBL1783204] | Inactive | 4.96 |  |  |
| CCC(C)NC(=N)c1ccc(N2CCN(c3nnc(-c4ccc([N+](=O)[O-])o4)s3)CC2)cc1.Cl (stereo not drawn) [CHEMBL1783205] | Inactive | 4.48 |  |  |
| Cl.N=C(NCc1ccccc1)c1ccc(N2CCN(c3nnc(-c4ccc([N+](=O)[O-])o4)s3)CC2)cc1 [CHEMBL1783206] | Active | 5.05 |  |  |
| COc1ccc(CNC(=N)c2ccc(N3CCN(c4nnc(-c5ccc([N+](=O)[O-])o5)s4)CC3)cc2)cc1.Cl [CHEMBL1783207] | Inactive | 4.10 |  |  |
| Cl.N=C(NCC1CCCO1)c1ccc(N2CCN(c3nnc(-c4ccc([N+](=O)[O-])o4)s3)CC2)cc1 (stereo not drawn) [CHEMBL1783208] | Inactive | 4.02 |  |  |
| Cl.N=C(c1ccc(N2CCN(c3nnc(-c4ccc([N+](=O)[O-])o4)s3)CC2)cc1)N1CCOCC1 [CHEMBL1783209] | Inactive | 4.03 |  |  |
| Cl.O=[N+]([O-])c1ccc(-c2nnc(N3CCN(c4ccc(C5=NCCN5)cc4)CC3)s2)o1 [CHEMBL1783210] | Inactive | 3.70 |  |  |
| Cl.O=[N+]([O-])c1ccc(-c2nnc(N3CCN(c4ccc(C5=NCCCN5)cc4)CC3)s2)o1 [CHEMBL1783211] | Inactive | 3.70 |  |  |
| Clc1ccc2c(c1)Nc1ccccc1O2 [CHEMBL1801896] | Inactive | 4.16 |  |  |
| Cc1ccc2cc(/C=C/C(=O)c3ccsc3)c(Cl)nc2c1 [CHEMBL1940850] |  |  | Active | 5.55 |
| Cc1ccc2cc(/C=C/C(=O)c3sccc3C)c(Cl)nc2c1 [CHEMBL1940851] |  |  | Active | 5.55 |
| Cc1csc(C(=O)/C=C/c2cc3ccc(C)cc3nc2Cl)c1 [CHEMBL1940852] |  |  | Active | 5.60 |
| Cc1ccc2cc(/C=C/C(=O)c3ccc(C)s3)c(Cl)nc2c1 [CHEMBL1940853] |  |  | Active | 5.65 |
| Cc1ccc2cc(/C=C/C(=O)c3cc(C)sc3C)c(Cl)nc2c1 [CHEMBL1940854] |  |  | Active | 5.74 |
| Cc1ccc2cc(/C=C/C(=O)c3sccc3Cl)c(Cl)nc2c1 [CHEMBL1940855] |  |  | Active | 5.77 |
| Cc1ccc2cc(/C=C/C(=O)c3ccc(Cl)s3)c(Cl)nc2c1 [CHEMBL1940856] |  |  | Active | 5.63 |
| Cc1ccc2cc(/C=C/C(=O)c3cc(Cl)sc3Cl)c(Cl)nc2c1 [CHEMBL1940857] |  |  | Active | 5.69 |
| Cc1ccc2cc(/C=C/C(=O)c3sccc3Br)c(Cl)nc2c1 [CHEMBL1940858] |  |  | Active | 5.74 |

| Compound | Outcome (L. major [1]; [3]) | pIC50 Value (L. major [2]; [4]) | Outcome (L. major [1]; [5]) | pIC50 Value (L. major [2]; [6]) |
| --- | --- | --- | --- | --- |
| Cc1ccc2cc(/C=C/C(=O)c3ccc(Br)s3)c(Cl)nc2c1 [CHEMBL1940859] |  |  | Active | 5.64 |
| Cc1ccc2cc(/C=C/C(=O)c3ccc(I)s3)c(Cl)nc2c1 [CHEMBL1940860] |  |  | Active | 5.72 |
| Cc1cccc2cc(/C=C/C(=O)c3ccsc3)c(Cl)nc12 [CHEMBL1940861] |  |  | Active | 5.71 |
| Cc1ccsc1C(=O)/C=C/c1cc2cccc(C)c2nc1Cl [CHEMBL1940862] |  |  | Active | 5.54 |
| Cc1csc(C(=O)/C=C/c2cc3cccc(C)c3nc2Cl)c1 [CHEMBL1940863] |  |  | Active | 5.74 |
| Cc1ccc(C(=O)/C=C/c2cc3cccc(C)c3nc2Cl)s1 [CHEMBL1940864] |  |  | Active | 5.73 |
| Cc1cc(C(=O)/C=C/c2cc3cccc(C)c3nc2Cl)c(C)s1 [CHEMBL1940865] |  |  | Active | 5.67 |
| Cc1cccc2cc(/C=C/C(=O)c3sccc3Cl)c(Cl)nc12 [CHEMBL1940866] |  |  | Active | 5.65 |
| Cc1cccc2cc(/C=C/C(=O)c3ccc(Cl)s3)c(Cl)nc12 [CHEMBL1940867] |  |  | Active | 5.73 |
| Cc1cccc2cc(/C=C/C(=O)c3cc(Cl)sc3Cl)c(Cl)nc12 [CHEMBL1940868] |  |  | Active | 5.65 |
| Cc1cccc2cc(/C=C/C(=O)c3sccc3Br)c(Cl)nc12 [CHEMBL1940869] |  |  | Active | 5.63 |
| Cc1cccc2cc(/C=C/C(=O)c3ccc(Br)s3)c(Cl)nc12 [CHEMBL1940870] |  |  | Active | 5.70 |
| Cc1cccc2cc(/C=C/C(=O)c3ccc(I)s3)c(Cl)nc12 [CHEMBL1940871] |  |  | Active | 5.82 |
| O=[N+]([O-])c1ccc2nc(-c3ccccc3Cl)[nH]c2c1 [CHEMBL1947235] |  |  | Active | 5.48 |
| O=[N+]([O-])c1ccc(-c2nnc(NCc3cn(Cc4ccccc4)nn3)s2)o1 [CHEMBL1951522] | Inactive | 4.71 |  |  |
| O=[N+]([O-])c1ccc(-c2nnc(NCc3cn(Cc4ccccc4F)nn3)s2)o1 [CHEMBL1951523] | Inactive | 4.72 |  |  |
| O=[N+]([O-])c1ccc(-c2nnc(NCc3cn(Cc4ccc(F)cc4)nn3)s2)o1 [CHEMBL1951524] | Inactive | 4.67 |  |  |
| O=[N+]([O-])c1ccc(-c2nnc(NCc3cn(Cc4ccccc4Cl)nn3)s2)o1 [CHEMBL1951525] | Inactive | 4.72 |  |  |
| O=[N+]([O-])c1ccc(-c2nnc(NCc3cn(Cc4cccc(Cl)c4)nn3)s2)o1 [CHEMBL1951526] | Inactive | 3.97 |  |  |
| O=[N+]([O-])c1ccc(-c2nnc(NCc3cn(Cc4ccc(Cl)cc4)nn3)s2)o1 [CHEMBL1951527] | Inactive | 4.05 |  |  |
| Cc1ccccc1Cn1cc(CNc2nnc(-c3ccc([N+](=O)[O-])o3)s2)nn1 [CHEMBL1951528] | Inactive | 4.60 |  |  |

| Compound | Outcome (L. major [1]; [3]) | pIC50 Value (L. major [2]; [4]) | Outcome (L. major [1]; [5]) | pIC50 Value (L. major [2]; [6]) |
| --- | --- | --- | --- | --- |
| Cc1cccc(Cn2cc(CNc3nnc(-c4ccc([N+](=O)[O-])o4)s3)nn2)c1 [CHEMBL1951529] | Inactive | 4.66 |  |  |
| Cc1ccc(Cn2cc(CNc3nnc(-c4ccc([N+](=O)[O-])o4)s3)nn2)cc1 [CHEMBL1951530] | Inactive | 4.91 |  |  |
| O=[N+]([O-])c1ccc(Cn2cc(CNc3nnc(-c4ccc([N+](=O)[O-])o4)s3)nn2)cc1 [CHEMBL1951531] | Inactive | 4.49 |  |  |
| O=[N+]([O-])c1ccc(-c2nnc(NCc3cn(Cc4c(F)cccc4Cl)nn3)s2)o1 [CHEMBL1951532] | Inactive | 4.76 |  |  |
| O=[N+]([O-])c1ccc(-c2nnc(NCc3cn(Cc4cccc(Cl)c4Cl)nn3)s2)o1 [CHEMBL1951533] | Inactive | 3.99 |  |  |
| O=[N+]([O-])c1ccc(-c2nnc(NCc3cn(Cc4ccc(Cl)cc4Cl)nn3)s2)o1 [CHEMBL1951534] | Inactive | 4.70 |  |  |
| O=[N+]([O-])c1ccc(-c2nnc(NCc3cn(Cc4ccc(Cl)c(Cl)c4)nn3)s2)o1 [CHEMBL1951535] | Inactive | 3.88 |  |  |
| COc1cc(C)cc2c1C(=O)C=C(c1c(C)c(OC)c3ccc(O)c(OC)c3c1O)C2=O [CHEMBL2071223] |  |  | Active | 9.82 |
| COc1c(C)cc(O)c2c(OC)cccc12 [CHEMBL2071224] | Inactive | 4.00 |  |  |
| COc1cc(C)cc2c1C(=O)C=C(C1=C(C)C(=O)c3ccc(O)c(OC)c3C1=O)C2=O [CHEMBL2071225] |  |  | Active | 10.28 |
| COc1cc(C)cc2c1C(=O)C=C(c1c(C)cc3ccc(O)c(OC)c3c1O)C2=O [CHEMBL2071226] |  |  | Active | 9.74 |
| COc1c(C)cc2cccc(OC)c2c1O [CHEMBL2071227] | Inactive | 4.35 |  |  |
| COc1cccc2cc(C)cc(O)c12 [CHEMBL2071228] | Inactive | 4.30 |  |  |
| COc1ccc(OC)c2c(O)cc(C)cc12 [CHEMBL2071229] | Inactive | 4.42 |  |  |
| COc1cccc2cc(C=O)cc(O)c12 [CHEMBL2071232] | Inactive | 4.00 |  |  |
| COc1c(O)ccc2c1C(=O)C(C)=CC2=O [CHEMBL2071233] | Inactive | 4.03 |  |  |
| Cn1cc(C=Nc2ccccc2)c2ccccc21 [CHEMBL2071552] |  |  | Active | 5.49 |
| Cc1ccc(/N=C/c2cn(C)c3ccccc23)cc1 [CHEMBL2071553] |  |  | Active | 5.58 |
| CCOc1ccc(/N=C/c2cn(C)c3ccccc23)cc1 [CHEMBL2071554] |  |  | Active | 5.50 |
| Cn1cc(/C=N/c2ccc(Cl)cc2)c2ccccc21 [CHEMBL2071555] |  |  | Active | 5.67 |
| Cn1cc(/C=N/C(c2ccccc2)c2ccccc2)c2ccccc21 [CHEMBL2071556] |  |  | Active | 5.73 |
